Results on 6 molecules are retold here after ChEMBL document CHEMBL4808232, “Discovery of IDO1 inhibitors containing a decahydroquinoline, decahydro-1,6-naphthyridine, or octahydro-1H-pyrrolo[3,2-c]pyridine scaffold” (Bioorg Med Chem Lett, 2021).

Data set [1] can be described thus: Unbound clearance in male Wistar Han rat at 0.05 mg/kg, iv. It counts as ADME, organism-based. Conditions: in vivo.
Data set [2] has as its target T1, Indoleamine 2,3-dioxygenase 1 (Homo sapiens, UniProt P14902). The data set can be described thus: Inhibition of IDO1 in human whole blood. Type of data set: tissue-based.
The nature of data set [3]: Clearance in male Wistar Han rats at 0.05 mg/kg, iv. It counts as ADME, organism-based. To be noted: rat, in vivo.
Data set [4] is described as follows: MRT in male Wistar Han rat at 0.05 mg/kg, iv. It counts as ADME, organism-based. To be noted: male, Wistar Han, in vivo, read-out: MRT.
Data set [5] concerns the target T1, Indoleamine 2,3-dioxygenase 1. The data set can be described thus: Inhibition of IDO1 in human HeLa cells assessed as production of N-formylkynurenine using tryptophan as substrate in presence of inactivated fetal bovine serum. Type of data set: cell-based.
Data set [6] shares this target. The data set can be described thus: Inhibition of IDO1 in human whole blood assessed as unbound concentration. It counts as tissue-based.
The nature of data set [7]: Unbound clearance in Beagle dog at 0.05 mg/kg, iv. Conditions: in vivo. Type of data set: ADME, organism-based, Canis lupus familiaris.
A short description of data set [8]: MRT in Beagle dog at 0.05 mg/kg, iv. To be noted: in vivo. It counts as ADME, organism-based, Canis lupus familiaris.
Data set [9] in a line: Clearance in Beagle dog at 0.05 mg/kg, iv. It counts as ADME, organism-based, Canis lupus familiaris. To be noted: in vivo.

T1 sequence (P14902 whole entry): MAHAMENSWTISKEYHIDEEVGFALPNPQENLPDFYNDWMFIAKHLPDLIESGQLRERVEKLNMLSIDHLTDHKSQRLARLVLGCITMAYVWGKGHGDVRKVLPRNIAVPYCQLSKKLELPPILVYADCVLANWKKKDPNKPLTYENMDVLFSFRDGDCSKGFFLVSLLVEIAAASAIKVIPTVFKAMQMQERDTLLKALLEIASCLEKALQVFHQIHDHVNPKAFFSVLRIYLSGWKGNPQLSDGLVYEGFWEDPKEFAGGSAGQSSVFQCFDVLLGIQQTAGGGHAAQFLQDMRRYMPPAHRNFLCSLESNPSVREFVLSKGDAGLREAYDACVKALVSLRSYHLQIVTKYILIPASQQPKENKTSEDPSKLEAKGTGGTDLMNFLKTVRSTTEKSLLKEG

`C[C@@H](C(=O)Nc1ccc(F)cc1)C1CCC2C(CCCN2C(=O)c2cccc(Cl)c2)C1` (stereo in doubt; 3) yielded a CL free in data set [1] of 4427 mL/min/kg. Also, the results for the IC50 in data set [2], in data set [5] and in data set [6] were 32 nM, 1 nM and 0.13 nM, respectively. For the same molecule, the clearance in data set [3] turned out to be 51 mL/min/kg. Also, in data set [4], the MRT is 1.6 h.

For the molecule `Cc1nccc(N2CCCC3CC(C4(C(=O)Nc5ccc(F)cc5)CCC4)CCC32)n1` (stereo in doubt; 15), the CL free in [1] worked out at 1309 mL/min/kg. In addition, the values for the IC50 in data set [2], in data set [5] and in [6] were 10 nM, 1.6 nM and 0.29 nM, respectively. Further, in data set [4], the mean residence time MRT was found to be 1.7 h.

Turning to `Cc1nccc(N2CCCC3CN(C(C)C(=O)Nc4ccc(Cl)cc4)CCC32)n1` (stereo in doubt; 32), in [1], the CL free was 2381 mL/min/kg. In [3], this molecule had a clearance of 31 mL/min/kg. The MRT in data set [4] stood at 2.9 h. For the same molecule, the IC50 in data set [5] came to 12 nM.

Turning to `CC(C(=O)Nc1ccc(Cl)cc1)N1CCC2C(CCCN2C(=O)OC2CC2)C1` (stereo in doubt; 27), the CL free turned out to be 1613 mL/min/kg in data set [1] and 727 mL/min/kg in data set [7]. The MRT amounted to 8.1 h in [8] and 2.9 h in data set [4]. Besides, the IC50 was determined as 43 nM in [2], 1.9 nM in data set [5] and 0.73 nM in [6]. In addition, the clearance in [3] came to 22 mL/min/kg; in data set [9], 9 mL/min/kg.

As to `O=C(CN1CCC2C(CCCN2C(=O)c2cccc(Cl)c2)C1)Nc1ccc(F)cc1` (stereo in doubt; 24), in data set [1], the CL free turned out to be 1401 mL/min/kg. Also, in data set [3], the clearance is 61 mL/min/kg. In addition, the mean residence time (MRT) in [4] turned out to be 1.6 h. The concentration for half-maximal inhibition (IC50) in data set [5] was determined as 2 nM.

`CC(C(=O)Nc1ccc(Cl)cc1)N1CCC2C(CCCN2c2ccnc(C(F)(F)F)n2)C1` (stereo in doubt; 33): the CL free in [1] is 8439 mL/min/kg. The clearance in data set [3] is 19 mL/min/kg. Further, the MRT in data set [4] stood at 3 h. Besides, the IC50 in data set [5] was determined as 15 nM.
